Row | Compound | logP
1 | COC1=CC2CCC(NC(C)=O)c3cc(=O)c(OC)ccc3C2C(OC)=C1O (stereo unspecified) | 0.47
2 | CCCCCCOC(=O)n1cc(F)c(=O)[nH]c1=O | 2.04
3 | COc1cccc(OC)c1-c1nc2ccncc2[nH]1 | 1.66
4 | CCCCCC(NC(C)=O)C(=O)OC (stereo unspecified) | 1.28
5 | CCCCC(NC(Cc1ccccc1)C(=O)N1CCC(OCOC)CC1)C(=O)NC(CC1CCCCC1)C(O)CC(C(=O)NCCCNCCO)C(C)C (stereo unspecified) | 3.5
6 | Nc1ncc(Cc2cccc(Cl)c2Cl)c(N)n1 | 2.81
7 | CCCCCCC(C)(C)c1ccc(C2CC(O)CC3CCC(O)CC32)c(O)c1 (stereo unspecified) | 6.13
8 | Cc1cccc(C)c1NC(=O)CN1CCN(CCCC(c2ccc(F)cc2)c2ccc(F)cc2)CC1 | 5.6
9 | CCN1C(=O)C(=O)c2cc(OC)c(OC)cc2C1=O | 1.31
10 | Clc1ccc(-c2c(Cl)c(Cl)c(Cl)c(Cl)c2Cl)cc1 | 7.31
11 | N#CCc1ccc(C(=O)O)cc1 | 1.18
12 | C=Cc1ncc([N+](=O)[O-])n1C | 0.62
13 | NC(CCc1ccccc1)C(=O)O (stereo unspecified) | -1.2
14 | CC1OC(OC2C(C)OC(OC3C(C)OC(OC4CCC5(C)C(CCC6C5CCC5(C)C(C7=CC(=O)OC7)C(OC=O)CC65OC=O)C4)CC3OC=O)CC2OC=O)CC(O)C1OC=O (stereo unspecified) | 3.16
15 | O=C(NCCCO)C(F)(F)Cn1cnc([N+](=O)[O-])n1 | -0.63
16 | CC(C)N(C=Nc1ccn(C2OC(CO)C(O)C2O)c(=O)n1)C(C)C (stereo unspecified) | 0.01
17 | ON=Cc1nnc(-c2ccccc2)o1 | 2.03
18 | CC(C)OC(=O)n1cc(F)c(=O)[nH]c1=O | 0.2
19 | CCCCCOC(=O)C(C(=O)OCCCCC)=C1SCCS1 | 5.6
20 | NS(=O)(=O)c1cc(C(=O)O)cc(N2CCCC2)c1Oc1ccccc1 | 3.92
21 | COC(O)Cn1c(Br)cnc1[N+](=O)[O-] (stereo unspecified) | 0.16
22 | CN(C)N=Nc1ccc(S(C)(=O)=O)cc1 | 1.59
23 | CCN1C(=O)C(=O)c2ccc(Cl)cc2C1=O | 1.79
24 | O=C(Cn1ccnc1[N+](=O)[O-])NCCCO | -1.27
25 | Cn1ccc(=O)c2ccccc21 | 0.44
26 | CN1C(=O)NC(=O)C(=O)C1=O | -1.01

Row | Compound | logP
27 | CCOC(=O)C(C)Oc1ccc(Oc2cnc3ccccc3n2)cc1 (stereo unspecified) | 3.47
28 | c1ccc(Cn2ncnn2)cc1 | 1.03
29 | CCCSP(=O)(OCC)Oc1cnn(-c2ccc(Cl)cc2)c1 (stereo unspecified) | 3.77
30 | CCCCN1C(=O)NC(=O)C(=O)C1=O | 0.81
31 | CCN1C(=O)C(=O)c2c(Cl)cccc2C1=O | 1.43
32 | Cc1ccc(-n2ccc(=O)c(O)c2C)cc1 | 1.72
33 | CCOC(=O)C(C)Oc1ccc(Oc2cnc3cc(C)ccc3n2)cc1 (stereo unspecified) | 4.11
34 | COc1ccc(COC(C(=O)O)c2ccccc2)cc1Cl (stereo unspecified) | 2.45
35 | CCN(CC)Cc1ccc(C(=O)Nc2ccccc2C)cc1 | 3.31
36 | CC(=O)NC(CCCCN)C(=O)NC(Cc1ccccc1)C(=O)NC(C(N)=O)C(C)C (stereo unspecified) | 0.51
37 | CCOc1ccccc1OCc1ccccc1CCCN1CCC(O)CC1 | 3.1
38 | CCOC(CNC(=O)C1(O)C(C)CC2C3CCC4=CC(=O)C=CC4(C)C3(F)C(O)CC21C)OCC (stereo unspecified) | 2.65
39 | CCc1cccc(NC(=O)Cc2ccccc2)c1 | 3.47
40 | O=C(NCCCOc1cccc(CN2CCCCC2)c1)c1ccccc1 | 3.97
41 | CC1CC2C3CCC4=CC(=O)C=CC4(C)C3(F)C(O)CC2(C)C1(O)C(N)=O (stereo unspecified) | 1.41
42 | CCNC(=O)C1(O)C(C)CC2C3CCC4=CC(=O)C=CC4(C)C3(F)C(O)CC21C (stereo unspecified) | 2.07
43 | OC1CCN(CCCc2ccccc2COc2ccc(F)cc2)CC1 | 3.3
44 | O=C(Cn1cnnn1)N[C@@H]1C(=O)N2C(C(=O)O)=C(CSc3nncs3)CS[C@H]12 | -0.67
45 | O=C1CC(Sc2nc3ccccc3s2)N1 (stereo unspecified) | 2.3
46 | Clc1cc2c(cc1Cl)Oc1c(cc(Cl)c(Cl)c1Cl)O2 | 6.64
47 | NC1=NCC2c3ccccc3Cc3ccccc3N12 (stereo unspecified) | 3.51
48 | Cc1cccc(OC(C)C(=O)NNC(C)C)c1 (stereo unspecified) | 1.88
49 | Cc1ccc(C(=O)OCCN(C)C)cc1 | 2.53
50 | C#CCC(O)(c1cccnc1)c1ccc(Cl)cc1Cl (stereo unspecified) | 2.29
51 | Cc1ncc(CO)c(COCCC(C)C)c1O | 0.83

Reference: the OPERA property sets (Mansouri et al. 2018)
